# How the values were obtained:
# Assay in all cases: relative viability (nuclei count vs DMSO), 5 days (fraction); higher = more cells survive
# [1] = compound: Cc1cnc(Nc2ccc(OCCN3CCCC3)cc2)nc1Nc1cccc(S(=O)(=O)NC(C)(C)C)c1 [Fedratinib] + N=C(N)NC(=N)NCCc1ccccc1 [Phenformin] (partner 250 µM)
# In short: (§1)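 Five library-drug doses in √10 steps were combined with a fixed anchor-drug dose, or a single drug was given alone, by pin tool to lung cancer cell lines in 1536-well plates the day after seeding. Nuclei were stained and counted after 5 days. Relative viability is the nuclei count in treated wells over that in vehicle wells, taken as the median of duplicate plates.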
# [2] = compound: Cc1cnc(Nc2ccc(OCCN3CCCC3)cc2)nc1Nc1cccc(S(=O)(=O)NC(C)(C)C)c1 [Fedratinib] + CCNC(=O)c1noc(-c2cc(C(C)C)c(O)cc2O)c1-c1ccc(CN2CCOCC2)cc1 [Luminespib] (partner 0.01 µM)
# In short: as §1
# [3] = compound: Cc1cnc(Nc2ccc(OCCN3CCCC3)cc2)nc1Nc1cccc(S(=O)(=O)NC(C)(C)C)c1 [Fedratinib] + CC(=O)c1c(C)c2cnc(Nc3ccc(N4CCNCC4)cn3)nc2n(C2CCCC2)c1=O [Palbociclib] (partner 0.5 µM)
# In short: as §1
# [4] = compound: Cc1cnc(Nc2ccc(OCCN3CCCC3)cc2)nc1Nc1cccc(S(=O)(=O)NC(C)(C)C)c1 [Fedratinib] + Cc1nc(NC(=O)N2CCC[C@H]2C(N)=O)sc1-c1ccnc(C(C)(C)C(F)(F)F)c1 [Alpelisib] (partner 2 µM)
# In short: as §1
# [5] = compound: COC1=CC=C(C=C1)COC2=C(C=C(C=C2)CC3=CN=C(N=C3N)N)OC [GW-2580] + Cc1cc(Nc2cc(N3CCN(C)CC3)nc(Sc3ccc(NC(=O)C4CC4)cc3)n2)n[nH]1 [Tozasertib] (partner 0.1 µM)
# In short: as §1
# [6] = compound: COC1=CC=C(C=C1)COC2=C(C=C(C=C2)CC3=CN=C(N=C3N)N)OC [GW-2580] + CS(=O)(=O)CCNCc1ccc(-c2ccc3ncnc(Nc4ccc(OCc5cccc(F)c5)c(Cl)c4)c3c2)o1 [Lapatinib] (partner 2 µM)
# In short: as §1
Cell Line,relative viability ([1]; first compound 0.1 µM),relative viability ([1]; first compound 0.3162 µM),relative viability ([1]; first compound 1 µM),relative viability ([2]; first compound 0.1 µM),relative viability ([2]; first compound 0.3162 µM),relative viability ([2]; first compound 1 µM),relative viability ([3]; first compound 0.1 µM),relative viability ([3]; first compound 0.3162 µM),relative viability ([3]; first compound 1 µM),relative viability ([4]; first compound 0.1 µM),relative viability ([4]; first compound 0.3162 µM),relative viability ([4]; first compound 1 µM),relative viability ([5]; first compound 0.08 µM),relative viability ([5]; first compound 0.8 µM),relative viability ([5]; first compound 2.53 µM),relative viability ([5]; first compound 8 µM),relative viability ([6]; first compound 0.08 µM),relative viability ([6]; first compound 0.8 µM),relative viability ([6]; first compound 2.53 µM),relative viability ([6]; first compound 8 µM)
NCI-H2347,0.508,0.225,0.494,0.33,0.401,0.59,0.37,0.426,0.391,1.04,1.04,1,0.538,0.745,0.508,0.401,1.02,1.03,0.805,0.936
NCI-H2009,0.334,0.486,0.419,1.04,1.09,0.943,0.185,0.254,0.161,1.21,1.2,1.1,0.744,0.828,0.715,0.707,0.966,0.894,0.91,0.857
HCC-15,0.43,0.464,0.399,0.114,0.247,0.381,0.664,0.708,0.636,0.746,0.793,0.758,0.489,0.562,0.615,0.222,0.87,1.08,0.807,0.866
HCC-44,0.123,0.293,0.163,1.01,0.974,0.972,0.95,0.968,0.983,0.759,0.771,0.801,1.13,0.913,0.937,0.918,1.12,1.06,0.923,1.04
COR-L23,0.438,0.412,0.442,0.816,0.671,0.602,0.303,0.26,0.131,0.752,0.74,0.778,0.209,0.202,0.179,0.185,1.26,1.22,1.06,1.06
NCI-H727,0.76,0.477,0.352,0.269,0.301,0.375,0.483,0.652,0.624,0.597,0.609,0.532,0.67,0.621,0.515,0.551,0.792,1.04,0.735,0.791
NCI-H2087,0.45,0.477,0.379,0.17,0.18,0.14,0.23,0.24,0.258,1.03,1.05,0.963,0.242,0.263,0.249,0.212,1.43,1.18,1.04,0.991
BEN,0.251,0.231,0.292,0.312,0.248,0.263,0.473,0.429,0.471,0.83,0.972,0.891,0.684,0.396,0.577,0.492,0.642,0.795,0.481,0.709
EKVX,0.251,0.265,0.246,0.888,0.866,0.934,0.391,0.403,0.414,0.898,1.04,0.931,0.553,0.428,0.313,0.321,0.181,0.236,0.189,0.18
LXF-289,0.503,0.488,0.517,0.741,0.665,0.747,0.611,0.559,0.558,1.06,0.997,1.05,0.191,0.188,0.161,0.157,0.941,0.946,0.815,0.829
ABC-1,0.265,0.23,0.209,0.415,0.655,0.607,0.691,0.704,0.609,0.979,0.994,1.12,0.157,0.147,0.179,0.193,1.42,1.03,–,1.18
NCI-H650,0.431,0.441,0.426,0.706,0.733,0.796,0.285,0.345,0.324,–,1.03,0.865,0.721,0.743,0.669,0.589,0.93,1.09,0.801,0.864
NCI-H2085,0.671,0.749,0.688,0.415,0.463,0.408,0.447,0.483,0.423,0.977,0.963,0.922,0.698,0.8,0.667,0.748,0.849,0.988,0.626,0.713
NCI-H1793,0.27,0.178,0.312,0.174,0.163,0.204,0.316,0.319,0.313,0.746,0.683,0.627,0.379,0.3,0.281,0.307,0.803,0.74,0.571,0.459
LC-2-ad,0.595,0.624,0.528,1.01,1.06,0.917,0.535,0.486,0.476,0.932,0.879,0.772,0.501,0.412,0.405,0.475,1.14,0.982,0.992,0.896
COR-L 105,0.398,0.429,0.433,0.753,0.743,0.78,0.393,0.41,0.405,1.04,1.06,0.793,0.317,0.311,0.352,0.387,0.429,0.393,0.336,0.351
NCI-H1355,0.379,0.467,0.327,0.59,0.702,0.696,0.412,0.396,0.385,0.731,0.853,0.832,0.532,0.494,0.396,0.477,1.08,1.2,0.817,1.01
H3255,0.377,0.362,0.418,0.913,0.932,0.59,0.277,0.303,0.318,0.458,0.715,0.652,0.619,0.217,0.664,0.47,0.216,0.265,0.234,0.249
NCI-H1993,0.508,0.476,0.493,0.679,0.85,1.1,0.654,0.63,0.906,0.612,0.755,0.65,0.618,0.526,0.574,0.549,0.775,0.904,–,0.907
NCI-H1734,0.382,0.385,0.353,0.179,0.205,0.185,0.415,0.344,0.334,0.627,0.654,0.62,0.25,0.267,0.277,0.252,1.17,1,1.01,1.01
HOP-62,0.682,0.601,0.631,0.958,0.924,0.908,0.437,0.426,0.393,0.941,0.759,0.89,0.404,0.374,0.333,0.326,0.856,0.986,0.997,1.12
LOU-NH91,0.689,0.899,0.733,0.323,0.4,0.33,0.573,0.544,0.543,0.615,0.785,0.676,0.687,0.657,0.625,0.589,0.748,0.811,0.649,0.789
NCI-H2228,0.226,0.252,0.358,0.112,0.12,0.119,0.648,0.53,0.523,0.59,0.842,0.747,0.28,0.351,0.226,0.235,0.893,1.28,1.38,1.02
PC-14,0.427,0.676,0.386,–,0.172,0.14,0.592,0.58,0.402,0.915,0.961,0.916,0.665,0.68,0.514,0.468,0.379,0.35,0.307,0.268
NCI-H1437,0.318,0.346,0.349,1.11,1.04,1.13,0.264,0.308,0.293,0.826,0.975,0.859,0.412,0.433,0.405,0.291,0.82,0.965,0.723,0.781
NCI-H460,0.382,0.516,0.459,0.0244,0.0389,0.0213,0.163,0.142,0.06,0.536,0.581,0.259,0.349,0.394,0.422,0.33,1.86,1.31,0.689,1.01
NCI-H1666,0.57,0.575,0.522,0.92,0.977,1.01,0.636,0.657,0.629,0.872,1.05,1.02,0.675,0.661,0.581,0.592,0.601,0.757,0.847,0.431
NCI-H1651,0.287,0.318,0.247,0.764,0.716,1.09,0.49,0.485,0.508,1.16,1.01,0.9,0.763,0.745,0.702,0.569,1.08,0.909,0.778,0.956
NCI-H1755,0.561,0.593,0.518,0.367,0.595,0.381,0.438,0.462,0.413,0.969,0.886,0.82,0.545,0.576,0.523,0.538,1.12,1.28,0.94,0.96
NCI-H661,0.269,0.287,0.304,0.925,0.969,0.846,0.397,0.401,0.359,0.835,0.452,0.629,0.34,0.344,0.367,0.336,0.448,0.647,0.378,0.459

# Source: the supplement of paper PMC10307832
